# Measurements published in PubChem BioAssay (NCI).
#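 Compound exposure: 48 hours, 5 concentrations, 96-well plates. Here, GI50 denotes the concentration required for 50% inhibition of growth. TGI: concentration producing complete growth inhibition.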
# Tests used:
# Experiment in all cases: inhibition of tumour cell growth, NCI panel, 48 h
# 786-0 renal = tested on: 786-0 renal
# A498 renal = tested on: A498 renal
# A549 NSCLC = tested on: A549 NSCLC
# ACHN renal = tested on: ACHN renal
# BT-549 breast = tested on: BT-549 breast
# CAKI-1 renal = tested on: CAKI-1 renal
# CCRF-CEM leukemia = tested on: CCRF-CEM leukemia
# COLO 205 colon = tested on: COLO 205 colon
# DU-145 prostate = tested on: DU-145 prostate
# EKVX NSCLC = tested on: EKVX NSCLC
# HCC-2998 colon = tested on: HCC-2998 colon
# HCT-116 colon = tested on: HCT-116 colon
# HCT-15 colon = tested on: HCT-15 colon
# HL-60(TB) leukemia = tested on: HL-60(TB) leukemia
# HOP-62 NSCLC = tested on: HOP-62 NSCLC
# HOP-92 NSCLC = tested on: HOP-92 NSCLC
# HS 578T breast = tested on: HS 578T breast
# HT29 colon = tested on: HT29 colon
# IGROV1 ovarian = tested on: IGROV1 ovarian
# K-562 leukemia = tested on: K-562 leukemia
# KM12 colon = tested on: KM12 colon
# LOX IMVI melanoma = tested on: LOX IMVI melanoma
# M14 melanoma = tested on: M14 melanoma
# MALME-3M melanoma = tested on: MALME-3M melanoma
# MCF7 breast = tested on: MCF7 breast
# MDA-MB-231 breast = tested on: MDA-MB-231 breast
# MDA-MB-435 = tested on: MDA-MB-435
# MOLT-4 leukemia = tested on: MOLT-4 leukemia
# NCI-H226 lung = tested on: NCI-H226 lung
# NCI-H23 lung = tested on: NCI-H23 lung
# NCI-H460 lung = tested on: NCI-H460 lung
# NCI-H522 lung = tested on: NCI-H522 lung
# NCI/ADR-RES ovarian = tested on: NCI/ADR-RES ovarian
# OVCAR-3 ovarian = tested on: OVCAR-3 ovarian
# OVCAR-4 ovarian = tested on: OVCAR-4 ovarian
# OVCAR-5 ovarian = tested on: OVCAR-5 ovarian
# OVCAR-8 ovarian = tested on: OVCAR-8 ovarian
# PC-3 prostate = tested on: PC-3 prostate
# RPMI-8226 leukemia = tested on: RPMI-8226 leukemia
# RXF 393 renal = tested on: RXF 393 renal
# SF-268 CNS = tested on: SF-268 CNS
# SF-295 CNS = tested on: SF-295 CNS
# SF-539 CNS = tested on: SF-539 CNS
# SK-MEL-2 melanoma = tested on: SK-MEL-2 melanoma
# SK-MEL-28 melanoma = tested on: SK-MEL-28 melanoma
# SK-MEL-5 melanoma = tested on: SK-MEL-5 melanoma
# SK-OV-3 ovarian = tested on: SK-OV-3 ovarian
# SN12C renal = tested on: SN12C renal
# SNB-19 CNS = tested on: SNB-19 CNS
# SNB-75 CNS = tested on: SNB-75 CNS
# SR leukemia = tested on: SR leukemia
# SW-620 colon = tested on: SW-620 colon
# T-47D breast = tested on: T-47D breast
# TK-10 renal = tested on: TK-10 renal
# U251 CNS = tested on: U251 CNS
# UACC-257 melanoma = tested on: UACC-257 melanoma
# UACC-62 melanoma = tested on: UACC-62 melanoma
# UO-31 renal = tested on: UO-31 renal
smiles,measurement,setting,value
Cc1noc(C)c1-c1ccc2[nH]c(=O)n3c2c1OC[C@@H]3c1ccccn1,GI50,786-0 renal,3.94 µM
same,TGI,786-0 renal,> 100 µM
same,TGI,A498 renal,6.25 µM
same,GI50,A549 NSCLC,2.92 µM
same,TGI,A549 NSCLC,> 100 µM
same,GI50,ACHN renal,1.5 µM
same,TGI,ACHN renal,> 100 µM
same,GI50,BT-549 breast,15.6 µM
same,TGI,BT-549 breast,> 100 µM
same,GI50,CAKI-1 renal,0.151 µM
same,TGI,CAKI-1 renal,> 100 µM
same,GI50,CCRF-CEM leukemia,2.07 µM
same,TGI,CCRF-CEM leukemia,> 100 µM
same,GI50,COLO 205 colon,0.433 µM
same,TGI,COLO 205 colon,> 100 µM
same,GI50,DU-145 prostate,> 64.3 µM
same,TGI,DU-145 prostate,> 100 µM
same,GI50,EKVX NSCLC,2.39 µM
same,TGI,EKVX NSCLC,> 100 µM
same,GI50,HCC-2998 colon,2 µM
same,TGI,HCC-2998 colon,> 100 µM
same,GI50,HCT-116 colon,2.84 µM
same,TGI,HCT-116 colon,> 100 µM
same,GI50,HCT-15 colon,0.653 µM
same,TGI,HCT-15 colon,> 100 µM
same,GI50,HL-60(TB) leukemia,0.144 µM
same,TGI,HL-60(TB) leukemia,> 100 µM
same,GI50,HOP-62 NSCLC,0.482 µM
same,TGI,HOP-62 NSCLC,> 100 µM
same,GI50,HOP-92 NSCLC,0.323 µM
same,TGI,HOP-92 NSCLC,> 100 µM
same,GI50,HS 578T breast,0.254 µM
same,TGI,HS 578T breast,> 31.2 µM
same,GI50,HT29 colon,0.415 µM
same,TGI,HT29 colon,> 100 µM
same,GI50,IGROV1 ovarian,0.965 µM
same,TGI,IGROV1 ovarian,> 100 µM
same,GI50,K-562 leukemia,0.959 µM
same,TGI,K-562 leukemia,> 100 µM
same,GI50,KM12 colon,> 27.8 µM
same,TGI,KM12 colon,> 100 µM
same,GI50,LOX IMVI melanoma,0.581 µM
same,TGI,LOX IMVI melanoma,> 32.1 µM
same,GI50,M14 melanoma,0.803 µM
same,TGI,M14 melanoma,> 100 µM
same,GI50,MALME-3M melanoma,1 µM
same,TGI,MALME-3M melanoma,> 100 µM
same,GI50,MCF7 breast,0.329 µM
same,TGI,MCF7 breast,> 100 µM
same,GI50,MDA-MB-231 breast,0.868 µM
same,TGI,MDA-MB-231 breast,> 100 µM
same,GI50,MDA-MB-435,3 µM
same,TGI,MDA-MB-435,> 100 µM
same,GI50,MOLT-4 leukemia,11.5 µM
same,TGI,MOLT-4 leukemia,> 100 µM
same,GI50,NCI-H226 lung,2.22 µM
same,TGI,NCI-H226 lung,> 100 µM
same,GI50,NCI-H23 lung,9.44 µM
same,TGI,NCI-H23 lung,> 100 µM
same,GI50,NCI-H460 lung,> 100 µM
same,TGI,NCI-H460 lung,> 100 µM
same,GI50,NCI-H522 lung,2.64 µM
same,TGI,NCI-H522 lung,> 100 µM
same,GI50,NCI/ADR-RES ovarian,2.33 µM
same,TGI,NCI/ADR-RES ovarian,> 100 µM
same,GI50,OVCAR-3 ovarian,3.84 µM
same,TGI,OVCAR-3 ovarian,> 100 µM
same,GI50,OVCAR-4 ovarian,1.03 µM
same,TGI,OVCAR-4 ovarian,> 100 µM
same,GI50,OVCAR-5 ovarian,5.87 µM
same,TGI,OVCAR-5 ovarian,> 100 µM
same,GI50,OVCAR-8 ovarian,11 µM
same,TGI,OVCAR-8 ovarian,> 100 µM
same,GI50,PC-3 prostate,2.88 µM
same,TGI,PC-3 prostate,> 100 µM
same,GI50,RPMI-8226 leukemia,0.267 µM
same,TGI,RPMI-8226 leukemia,> 20.2 µM
same,GI50,RXF 393 renal,1.26 µM
same,TGI,RXF 393 renal,> 25.3 µM
same,GI50,SF-268 CNS,> 100 µM
same,TGI,SF-268 CNS,> 100 µM
same,GI50,SF-295 CNS,1.84 µM
same,TGI,SF-295 CNS,> 100 µM
same,GI50,SF-539 CNS,2.05 µM
same,TGI,SF-539 CNS,> 100 µM
same,GI50,SK-MEL-2 melanoma,> 89.5 µM
same,TGI,SK-MEL-2 melanoma,> 100 µM
same,GI50,SK-MEL-28 melanoma,> 25.8 µM
same,TGI,SK-MEL-28 melanoma,> 100 µM
same,GI50,SK-MEL-5 melanoma,3.81 µM
same,TGI,SK-MEL-5 melanoma,> 100 µM
same,GI50,SK-OV-3 ovarian,0.634 µM
same,TGI,SK-OV-3 ovarian,> 100 µM
same,GI50,SN12C renal,21.4 µM
same,TGI,SN12C renal,> 100 µM
same,GI50,SNB-19 CNS,4.81 µM
same,TGI,SNB-19 CNS,> 100 µM
same,GI50,SNB-75 CNS,0.0166 µM
same,TGI,SNB-75 CNS,0.171 µM
same,GI50,SR leukemia,0.267 µM
same,TGI,SR leukemia,> 100 µM
same,GI50,SW-620 colon,> 100 µM
same,TGI,SW-620 colon,> 100 µM
same,GI50,T-47D breast,0.585 µM
same,TGI,T-47D breast,> 100 µM
same,GI50,TK-10 renal,0.312 µM
same,TGI,TK-10 renal,> 100 µM
same,GI50,U251 CNS,30.9 µM
same,TGI,U251 CNS,> 100 µM
same,GI50,UACC-257 melanoma,3.92 µM
same,TGI,UACC-257 melanoma,> 100 µM
same,GI50,UACC-62 melanoma,0.302 µM
same,TGI,UACC-62 melanoma,> 100 µM
same,GI50,UO-31 renal,0.18 µM
same,TGI,UO-31 renal,> 100 µM
